Results from ChEMBL document CHEMBL1150021, “Alkyl ether analogs of the FK-506 related, immunosuppressive macrolide L-683,590 (ascomycin)” (Bioorg Med Chem Lett, 1994).

The molecules below were run against Peptidyl-prolyl cis-trans isomerase FKBP1A (Homo sapiens, UniProt P62942) (assay: Ability to bind the major cystolic receptor FK506 binding protein 12 by using competitive binding assay). Conditions: not given.
Peptidyl-prolyl cis-trans isomerase FKBP1A, sequence (P62942 whole entry): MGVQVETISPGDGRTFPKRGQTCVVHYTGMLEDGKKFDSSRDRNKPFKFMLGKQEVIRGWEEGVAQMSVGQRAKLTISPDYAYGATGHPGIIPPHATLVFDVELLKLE

Compound	EC50
CC[C@@H]1/C=C(\C)C[C@H](C)C[C@H](OC)[C@H]2O[C@@](O)(C(=O)C(=O)N3CCCC[C@H]3C(=O)O[C@H](/C(C)=C/[C@@H]3CC[C@@H](OC/C=C/c4ccc(Br)cc4)[C@H](OC)C3)[C@H](C)[C@@H](O)CC1=O)[C@H](C)C[C@@H]2OC	23 nM
CC[C@@H]1/C=C(\C)C[C@H](C)C[C@H](OC)[C@H]2O[C@@](O)(C(=O)C(=O)N3CCCC[C@H]3C(=O)O[C@H](/C(C)=C/[C@@H]3CC[C@@H](OC/C=C/c4ccc(O)cc4)[C@H](OC)C3)[C@H](C)[C@@H](O)CC1=O)[C@H](C)C[C@@H]2OC	20.5 nM
CC[C@@H]1/C=C(\C)C[C@H](C)C[C@H](OC)[C@H]2O[C@@](O)(C(=O)C(=O)N3CCCC[C@H]3C(=O)O[C@H](/C(C)=C/[C@@H]3CC[C@@H](OC/C=C/c4cccc([N+](=O)[O-])c4)[C@H](OC)C3)[C@H](C)[C@@H](O)CC1=O)[C@H](C)C[C@@H]2OC	34.3 nM
CC[C@@H]1/C=C(\C)C[C@H](C)C[C@H](OC)[C@H]2O[C@@](O)(C(=O)C(=O)N3CCCC[C@H]3C(=O)O[C@H](/C(C)=C/[C@@H]3CC[C@@H](O)[C@H](OC)C3)[C@H](C)[C@@H](O)CC1=O)[C@H](C)C[C@@H]2OC [ASCOMYCIN]	1.6 nM

The molecules below were run on T-cell (assay: In vitro evaluation for immunosuppressive activity against proliferation of antigen stimulated murine splenic T cells). Conditions: Mus musculus.
Assay type: functional, cell-based

Compound	IC50
CC[C@@H]1/C=C(\C)C[C@H](C)C[C@H](OC)[C@H]2O[C@@](O)(C(=O)C(=O)N3CCCC[C@H]3C(=O)O[C@H](/C(C)=C/[C@@H]3CC[C@@H](OCc4ccco4)[C@H](OC)C3)[C@H](C)[C@@H](O)CC1=O)[C@H](C)C[C@@H]2OC	13.9 nM
C/C=C(C)/C=C/CO[C@@H]1CC[C@@H](/C=C(\C)[C@H]2OC(=O)[C@@H]3CCCCN3C(=O)C(=O)[C@]3(O)O[C@H]([C@@H](OC)C[C@@H](C)C/C(C)=C/[C@@H](CC)C(=O)C[C@H](O)[C@H]2C)[C@@H](OC)C[C@H]3C)C[C@H]1OC	6.9 nM
CC[C@@H]1/C=C(\C)C[C@H](C)C[C@H](OC)[C@H]2O[C@@](O)(C(=O)C(=O)N3CCCC[C@H]3C(=O)O[C@H](/C(C)=C/[C@@H]3CC[C@@H](OC/C=C/c4cccc(F)c4)[C@H](OC)C3)[C@H](C)[C@@H](O)CC1=O)[C@H](C)C[C@@H]2OC	2.5 nM
CC[C@@H]1/C=C(\C)C[C@H](C)C[C@H](OC)[C@H]2O[C@@](O)(C(=O)C(=O)N3CCCC[C@H]3C(=O)O[C@H](/C(C)=C/[C@@H]3CC[C@@H](OC/C=C/c4ccc(Br)cc4)[C@H](OC)C3)[C@H](C)[C@@H](O)CC1=O)[C@H](C)C[C@@H]2OC	14.5 nM
CC[C@@H]1/C=C(\C)C[C@H](C)C[C@H](OC)[C@H]2O[C@@](O)(C(=O)C(=O)N3CCCC[C@H]3C(=O)O[C@H](/C(C)=C/[C@@H]3CC[C@@H](OCCCc4ccccc4)[C@H](OC)C3)[C@H](C)[C@@H](O)CC1=O)[C@H](C)C[C@@H]2OC	3.5 nM
CC[C@@H]1/C=C(\C)C[C@H](C)C[C@H](OC)[C@H]2O[C@@](O)(C(=O)C(=O)N3CCCC[C@H]3C(=O)O[C@H](/C(C)=C/[C@@H]3CC[C@@H](OC/C=C/c4ccc(OC)cc4)[C@H](OC)C3)[C@H](C)[C@@H](O)CC1=O)[C@H](C)C[C@@H]2OC	3.8 nM
CC[C@@H]1/C=C(\C)C[C@H](C)C[C@H](OC)[C@H]2O[C@@](O)(C(=O)C(=O)N3CCCC[C@H]3C(=O)O[C@H](/C(C)=C/[C@@H]3CC[C@@H](OC/C=C/c4cc(F)cc(F)c4)[C@H](OC)C3)[C@H](C)[C@@H](O)CC1=O)[C@H](C)C[C@@H]2OC	3.9 nM
CC[C@@H]1/C=C(\C)C[C@H](C)C[C@H](OC)[C@H]2O[C@@](O)(C(=O)C(=O)N3CCCC[C@H]3C(=O)O[C@H](/C(C)=C/[C@@H]3CC[C@@H](OCc4ccccc4)[C@H](OC)C3)[C@H](C)[C@@H](O)CC1=O)[C@H](C)C[C@@H]2OC	3 nM
CC#CCO[C@@H]1CC[C@@H](/C=C(\C)[C@H]2OC(=O)[C@@H]3CCCCN3C(=O)C(=O)[C@]3(O)O[C@H]([C@@H](OC)C[C@@H](C)C/C(C)=C/[C@@H](CC)C(=O)C[C@H](O)[C@H]2C)[C@@H](OC)C[C@H]3C)C[C@H]1OC	6.1 nM
CC[C@@H]1/C=C(\C)C[C@H](C)C[C@H](OC)[C@H]2O[C@@](O)(C(=O)C(=O)N3CCCC[C@H]3C(=O)O[C@H](/C(C)=C/[C@@H]3CC[C@@H](OCc4cccs4)[C@H](OC)C3)[C@H](C)[C@@H](O)CC1=O)[C@H](C)C[C@@H]2OC	7.1 nM
CC[C@@H]1/C=C(\C)C[C@H](C)C[C@H](OC)[C@H]2O[C@@](O)(C(=O)C(=O)N3CCCC[C@H]3C(=O)O[C@H](/C(C)=C/[C@@H]3CC[C@@H](OC(C)C)[C@H](OC)C3)[C@H](C)[C@@H](O)CC1=O)[C@H](C)C[C@@H]2OC	12.5 nM
CC[C@@H]1/C=C(\C)C[C@H](C)C[C@H](OC)[C@H]2O[C@@](O)(C(=O)C(=O)N3CCCC[C@H]3C(=O)O[C@H](/C(C)=C/[C@@H]3CC[C@@H](OC(C)c4ccccc4)[C@H](OC)C3)[C@H](C)[C@@H](O)CC1=O)[C@H](C)C[C@@H]2OC (stereo not given in full)	11.3 nM
CC[C@@H]1/C=C(\C)C[C@H](C)C[C@H](OC)[C@H]2O[C@@](O)(C(=O)C(=O)N3CCCC[C@H]3C(=O)O[C@H](/C(C)=C/[C@@H]3CC[C@@H](OC/C=C/C4CCCCC4)[C@H](OC)C3)[C@H](C)[C@@H](O)CC1=O)[C@H](C)C[C@@H]2OC	5.5 nM
CC[C@@H]1/C=C(\C)C[C@H](C)C[C@H](OC)[C@H]2O[C@@](O)(C(=O)C(=O)N3CCCC[C@H]3C(=O)O[C@H](/C(C)=C/[C@@H]3CC[C@@H](OC/C=C/c4cccc([N+](=O)[O-])c4)[C@H](OC)C3)[C@H](C)[C@@H](O)CC1=O)[C@H](C)C[C@@H]2OC	1.9 nM
CC[C@@H]1/C=C(\C)C[C@H](C)C[C@H](OC)[C@H]2O[C@@](O)(C(=O)C(=O)N3CCCC[C@H]3C(=O)O[C@H](/C(C)=C/[C@@H]3CC[C@@H](OC/C=C/c4cccc(O)c4)[C@H](OC)C3)[C@H](C)[C@@H](O)CC1=O)[C@H](C)C[C@@H]2OC	0.8 nM
CC[C@@H]1/C=C(\C)C[C@H](C)C[C@H](OC)[C@H]2O[C@@](O)(C(=O)C(=O)N3CCCC[C@H]3C(=O)O[C@H](/C(C)=C/[C@@H]3CC[C@@H](OCC#Cc4ccccc4)[C@H](OC)C3)[C@H](C)[C@@H](O)CC1=O)[C@H](C)C[C@@H]2OC	2.7 nM
CC[C@@H]1/C=C(\C)C[C@H](C)C[C@H](OC)[C@H]2O[C@@](O)(C(=O)C(=O)N3CCCC[C@H]3C(=O)O[C@H](/C(C)=C/[C@@H]3CC[C@@H](OC/C=C/C(C)(C)C)[C@H](OC)C3)[C@H](C)[C@@H](O)CC1=O)[C@H](C)C[C@@H]2OC	14.2 nM
CC[C@@H]1/C=C(\C)C[C@H](C)C[C@H](OC)[C@H]2O[C@@](O)(C(=O)C(=O)N3CCCC[C@H]3C(=O)O[C@H](/C(C)=C/[C@@H]3CC[C@@H](OC/C(C)=C/c4ccccc4)[C@H](OC)C3)[C@H](C)[C@@H](O)CC1=O)[C@H](C)C[C@@H]2OC	5.5 nM
CC[C@@H]1/C=C(\C)C[C@H](C)C[C@H](OC)[C@H]2O[C@@](O)(C(=O)C(=O)N3CCCC[C@H]3C(=O)O[C@H](/C(C)=C/[C@@H]3CC[C@@H](OC/C=C/c4ccc(F)cc4)[C@H](OC)C3)[C@H](C)[C@@H](O)CC1=O)[C@H](C)C[C@@H]2OC	5.5 nM
CC[C@@H]1/C=C(\C)C[C@H](C)C[C@H](OC)[C@H]2O[C@@](O)(C(=O)C(=O)N3CCCC[C@H]3C(=O)O[C@H](/C(C)=C/[C@@H]3CC[C@@H](OC/C=C/c4ccc(Cl)cc4)[C@H](OC)C3)[C@H](C)[C@@H](O)CC1=O)[C@H](C)C[C@@H]2OC	15.8 nM
C=CC[C@@H]1/C=C(\C)C[C@H](C)C[C@H](OC)[C@H]2O[C@@](O)(C(=O)C(=O)N3CCCC[C@H]3C(=O)O[C@H](/C(C)=C/[C@@H]3CC[C@@H](O)[C@H](OC)C3)[C@H](C)[C@@H](O)CC1=O)[C@H](C)C[C@@H]2OC [TACROLIMUS ANHYDROUS]	0.29 nM
